Laboratory results reported in the kinase profiling compilation of Christmann-Franck et al. (2016).

Experiments:
Experiment in all cases: radiometric filter-binding kinase assay
[1] = molecular target: PIM1 (human) (UniProt P11309)
[2] = molecular target: DYRK3 (human) (UniProt O43781)
[3] = molecular target: CHEK2 (human) (UniProt O96017)
[4] = molecular target: MYLK (human) (UniProt Q15746)
[5] = molecular target: EPHB1 (human) (UniProt P54762)
[6] = molecular target: IKBKE (human) (UniProt Q14164)
[7] = molecular target: DYRK2 (human) (UniProt Q92630)
[8] = molecular target: MAPKAPK2 (human) (UniProt P49137)
MAPKAPK2 (human), sequence (P49137 whole entry, looked up): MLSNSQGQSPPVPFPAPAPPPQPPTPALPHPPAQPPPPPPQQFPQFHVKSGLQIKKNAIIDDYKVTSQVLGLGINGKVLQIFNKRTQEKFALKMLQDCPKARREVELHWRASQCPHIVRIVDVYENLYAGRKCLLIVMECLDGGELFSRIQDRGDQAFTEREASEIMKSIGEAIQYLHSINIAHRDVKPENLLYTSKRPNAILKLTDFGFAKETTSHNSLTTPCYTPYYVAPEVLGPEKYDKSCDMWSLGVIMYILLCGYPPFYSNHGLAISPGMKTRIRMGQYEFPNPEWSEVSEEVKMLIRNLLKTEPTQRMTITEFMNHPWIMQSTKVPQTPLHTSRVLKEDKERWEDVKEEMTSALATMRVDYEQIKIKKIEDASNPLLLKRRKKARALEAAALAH

[9] = molecular target: MAPKAPK5 (human) (UniProt Q8IW41)
[10] = molecular target: PIM3 (human) (UniProt Q86V86)
[11] = molecular target: NEK2 (human) (UniProt P51955)
[12] = tested on: SGK1 (human), O00141 [S422D]
[13] = molecular target: MARK2 (human) (UniProt Q7KZI7)
MARK2 (human), sequence (Q7KZI7 whole entry, looked up): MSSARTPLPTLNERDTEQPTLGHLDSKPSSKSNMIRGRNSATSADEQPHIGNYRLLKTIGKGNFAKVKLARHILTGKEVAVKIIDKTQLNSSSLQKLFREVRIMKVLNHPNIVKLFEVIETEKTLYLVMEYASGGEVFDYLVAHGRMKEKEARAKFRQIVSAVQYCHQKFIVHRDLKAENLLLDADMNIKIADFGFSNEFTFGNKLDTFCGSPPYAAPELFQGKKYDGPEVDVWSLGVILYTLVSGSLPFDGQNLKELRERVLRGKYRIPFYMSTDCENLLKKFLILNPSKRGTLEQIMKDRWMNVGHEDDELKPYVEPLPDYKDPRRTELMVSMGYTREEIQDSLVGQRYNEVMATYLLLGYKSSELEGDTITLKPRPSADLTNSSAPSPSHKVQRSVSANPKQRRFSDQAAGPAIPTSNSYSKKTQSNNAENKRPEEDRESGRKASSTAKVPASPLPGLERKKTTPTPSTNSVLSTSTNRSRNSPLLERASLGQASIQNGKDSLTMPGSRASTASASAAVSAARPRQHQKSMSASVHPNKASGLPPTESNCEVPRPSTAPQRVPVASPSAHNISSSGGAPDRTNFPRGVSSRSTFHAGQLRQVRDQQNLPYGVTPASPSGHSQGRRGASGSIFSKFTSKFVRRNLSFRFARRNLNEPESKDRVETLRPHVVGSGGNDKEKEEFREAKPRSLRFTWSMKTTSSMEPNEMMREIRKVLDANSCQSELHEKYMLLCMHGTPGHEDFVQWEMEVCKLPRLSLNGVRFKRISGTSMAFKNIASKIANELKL

[14] = molecular target: EPHB2 (human) (UniProt P29323)
[15] = molecular target: STK3 (human) (UniProt Q13188)
[16] = molecular target: MARK1 (human) (UniProt Q9P0L2)
[17] = tested on: RPS6KB1 (human), P23443 [T412E]
[18] = molecular target: MAP3K7 TAB1 (human) (UniProt Q15750+O43318)
[19] = molecular target: HIPK2 (human) (UniProt Q9H2X6)
HIPK2 (human), sequence (Q9H2X6 whole entry, looked up): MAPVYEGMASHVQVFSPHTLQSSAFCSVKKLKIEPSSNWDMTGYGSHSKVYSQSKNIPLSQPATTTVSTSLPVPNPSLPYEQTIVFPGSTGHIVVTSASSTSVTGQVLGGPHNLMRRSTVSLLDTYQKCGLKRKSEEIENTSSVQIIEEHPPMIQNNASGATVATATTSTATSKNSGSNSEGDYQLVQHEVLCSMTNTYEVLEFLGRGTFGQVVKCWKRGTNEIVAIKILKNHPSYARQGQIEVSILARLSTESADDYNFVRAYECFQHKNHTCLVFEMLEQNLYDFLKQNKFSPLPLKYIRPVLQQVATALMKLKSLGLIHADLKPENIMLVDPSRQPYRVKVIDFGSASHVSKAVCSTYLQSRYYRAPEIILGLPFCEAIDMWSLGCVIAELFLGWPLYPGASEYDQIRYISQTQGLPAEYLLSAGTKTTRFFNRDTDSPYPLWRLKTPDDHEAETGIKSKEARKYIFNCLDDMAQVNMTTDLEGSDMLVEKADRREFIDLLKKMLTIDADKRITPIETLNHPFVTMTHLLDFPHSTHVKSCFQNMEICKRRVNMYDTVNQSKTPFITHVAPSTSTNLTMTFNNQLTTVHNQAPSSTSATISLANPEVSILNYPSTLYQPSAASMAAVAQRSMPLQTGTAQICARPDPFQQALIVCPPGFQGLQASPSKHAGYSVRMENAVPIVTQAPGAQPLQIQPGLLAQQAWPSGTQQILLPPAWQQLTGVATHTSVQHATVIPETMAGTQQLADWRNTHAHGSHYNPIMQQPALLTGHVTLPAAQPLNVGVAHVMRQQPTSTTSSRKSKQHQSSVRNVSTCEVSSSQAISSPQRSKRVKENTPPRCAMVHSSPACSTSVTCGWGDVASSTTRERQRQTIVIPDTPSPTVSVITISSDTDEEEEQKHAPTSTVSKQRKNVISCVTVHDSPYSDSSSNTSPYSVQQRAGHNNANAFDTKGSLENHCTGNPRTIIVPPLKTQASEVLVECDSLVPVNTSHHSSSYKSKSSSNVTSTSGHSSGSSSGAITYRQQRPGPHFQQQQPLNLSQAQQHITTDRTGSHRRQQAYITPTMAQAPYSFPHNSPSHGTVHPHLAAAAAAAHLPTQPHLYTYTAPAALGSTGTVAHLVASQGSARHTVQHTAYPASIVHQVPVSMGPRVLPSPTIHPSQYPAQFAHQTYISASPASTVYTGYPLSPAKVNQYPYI

[20] = molecular target: FLT1 (human) (UniProt P17948)
[21] = molecular target: CLK2 (human) (UniProt P49760)
[22] = molecular target: EPHB4 (human) (UniProt P54760)
[23] = molecular target: PKN2 (human) (UniProt Q16513)
[24] = molecular target: GCK (human) (UniProt Q12851)
[25] = tested on: ROCK2 (rat); settings: accession and sequence are those of the human protein
[26] = molecular target: MELK (human) (UniProt Q14680)
[27] = molecular target: MAPK14 (human) (UniProt Q16539)
[28] = molecular target: RPS6KA1 KD1 KD2 (human) (UniProt Q15418)
RPS6KA1 KD1 KD2 (human), sequence (Q15418 whole entry, looked up): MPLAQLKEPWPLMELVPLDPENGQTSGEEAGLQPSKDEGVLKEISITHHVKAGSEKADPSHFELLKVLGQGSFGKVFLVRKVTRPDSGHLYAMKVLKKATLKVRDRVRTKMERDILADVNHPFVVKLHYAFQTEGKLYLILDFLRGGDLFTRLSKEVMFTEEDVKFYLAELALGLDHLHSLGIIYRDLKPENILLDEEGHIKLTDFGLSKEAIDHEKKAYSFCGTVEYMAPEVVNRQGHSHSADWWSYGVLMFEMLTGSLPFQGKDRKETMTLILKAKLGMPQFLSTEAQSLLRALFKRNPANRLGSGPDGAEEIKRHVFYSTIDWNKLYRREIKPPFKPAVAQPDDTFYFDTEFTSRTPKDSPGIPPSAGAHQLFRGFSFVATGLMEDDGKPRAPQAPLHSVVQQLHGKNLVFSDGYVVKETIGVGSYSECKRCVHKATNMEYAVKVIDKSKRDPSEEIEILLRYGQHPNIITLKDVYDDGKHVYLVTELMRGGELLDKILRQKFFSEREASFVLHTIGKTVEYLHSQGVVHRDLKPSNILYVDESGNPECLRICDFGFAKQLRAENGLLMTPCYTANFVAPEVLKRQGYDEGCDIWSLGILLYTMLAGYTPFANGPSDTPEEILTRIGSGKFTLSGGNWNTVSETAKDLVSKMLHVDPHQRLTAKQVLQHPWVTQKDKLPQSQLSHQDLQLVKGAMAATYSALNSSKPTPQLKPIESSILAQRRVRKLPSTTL

[29] = molecular target: TAOK1 (human) (UniProt Q7L7X3)
[30] = molecular target: EPHA2 (human) (UniProt P29317)
EPHA2 (human), sequence (P29317 whole entry, looked up): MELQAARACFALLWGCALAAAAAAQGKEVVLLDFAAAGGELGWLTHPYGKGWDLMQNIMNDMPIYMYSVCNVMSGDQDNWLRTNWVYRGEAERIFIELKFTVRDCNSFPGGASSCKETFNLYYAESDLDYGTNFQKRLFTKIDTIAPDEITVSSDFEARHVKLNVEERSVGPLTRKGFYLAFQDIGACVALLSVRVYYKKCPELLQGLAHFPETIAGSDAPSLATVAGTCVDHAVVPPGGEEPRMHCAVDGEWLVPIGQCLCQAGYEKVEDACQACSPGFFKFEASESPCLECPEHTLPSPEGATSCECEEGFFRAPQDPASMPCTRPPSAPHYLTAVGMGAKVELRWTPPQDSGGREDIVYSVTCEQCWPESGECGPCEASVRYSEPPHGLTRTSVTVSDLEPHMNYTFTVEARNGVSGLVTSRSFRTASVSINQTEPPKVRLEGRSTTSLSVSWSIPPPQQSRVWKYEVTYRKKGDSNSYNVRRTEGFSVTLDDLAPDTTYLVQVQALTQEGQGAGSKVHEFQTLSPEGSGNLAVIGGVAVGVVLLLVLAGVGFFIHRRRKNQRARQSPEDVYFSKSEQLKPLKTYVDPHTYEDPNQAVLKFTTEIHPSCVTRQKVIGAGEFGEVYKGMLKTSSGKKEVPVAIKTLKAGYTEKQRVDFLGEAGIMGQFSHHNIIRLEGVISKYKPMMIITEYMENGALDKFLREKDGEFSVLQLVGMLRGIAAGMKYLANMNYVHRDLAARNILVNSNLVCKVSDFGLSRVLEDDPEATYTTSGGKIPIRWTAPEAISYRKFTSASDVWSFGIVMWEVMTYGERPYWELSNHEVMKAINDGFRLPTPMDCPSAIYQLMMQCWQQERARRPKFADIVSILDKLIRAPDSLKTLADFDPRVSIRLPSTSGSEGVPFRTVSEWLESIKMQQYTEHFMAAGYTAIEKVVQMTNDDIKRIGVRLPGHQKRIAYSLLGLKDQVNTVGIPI

[31] = molecular target: MAPK12 (human) (UniProt P53778)
[32] = molecular target: DAPK1 (human) (UniProt P53355)
[33] = molecular target: TTK (human) (UniProt P33981)
[34] = molecular target: IRAK4 (human) (UniProt Q9NWZ3)
[35] = molecular target: PRKCA (human) (UniProt P17252)

DYRK3 (human), sequence (O43781 whole entry, looked up): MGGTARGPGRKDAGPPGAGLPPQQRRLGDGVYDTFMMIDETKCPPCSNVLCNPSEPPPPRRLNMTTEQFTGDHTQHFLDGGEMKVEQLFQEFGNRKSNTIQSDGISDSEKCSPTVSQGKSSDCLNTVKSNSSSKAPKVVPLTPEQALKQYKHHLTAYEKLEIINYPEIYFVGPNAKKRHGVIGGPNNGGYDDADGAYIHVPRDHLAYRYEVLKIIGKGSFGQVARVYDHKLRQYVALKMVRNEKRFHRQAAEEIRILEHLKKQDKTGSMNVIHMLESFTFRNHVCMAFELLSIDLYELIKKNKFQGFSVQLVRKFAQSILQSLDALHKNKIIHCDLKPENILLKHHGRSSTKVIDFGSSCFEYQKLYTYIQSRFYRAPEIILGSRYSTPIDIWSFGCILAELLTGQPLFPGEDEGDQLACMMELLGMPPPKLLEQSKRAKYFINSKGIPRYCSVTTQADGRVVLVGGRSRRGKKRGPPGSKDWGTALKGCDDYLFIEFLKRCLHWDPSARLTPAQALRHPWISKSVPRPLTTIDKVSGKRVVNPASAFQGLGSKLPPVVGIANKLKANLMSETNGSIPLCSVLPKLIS

- residual activity ([1]; compound 0.1 µM): 94%
- residual activity ([1]; compound 1.0 µM): 35%
- residual activity ([1]; compound 10.0 µM): 7%
- residual activity ([2]; compound 0.1 µM): 107%
- residual activity ([2]; compound 1.0 µM): 93%
- residual activity ([2]; compound 10.0 µM): 72%
- residual activity ([3]; compound 0.1 µM): 94%
- residual activity ([3]; compound 1.0 µM): 89%
- residual activity ([3]; compound 10.0 µM): 69%
- residual activity ([4]; compound 0.1 µM): 104%
- residual activity ([4]; compound 1.0 µM): 110%
- residual activity ([4]; compound 10.0 µM): 70%
- residual activity ([5]; compound 0.1 µM): 92%
- residual activity ([5]; compound 1.0 µM): 99%
- residual activity ([5]; compound 10.0 µM): 82%
- residual activity ([6]; compound 0.1 µM): 111%
- residual activity ([6]; compound 1.0 µM): 110%
- residual activity ([6]; compound 10.0 µM): 115%
- residual activity ([7]; compound 0.1 µM): 87%
- residual activity ([7]; compound 1.0 µM): 89%
- residual activity ([7]; compound 10.0 µM): 53%
- residual activity ([8]; compound 0.1 µM): 112%
- residual activity ([8]; compound 1.0 µM): 104%
- residual activity ([8]; compound 10.0 µM): 102%
- residual activity ([9]; compound 0.1 µM): 94%
- residual activity ([9]; compound 1.0 µM): 95%
- residual activity ([9]; compound 10.0 µM): 96%
- residual activity ([10]; compound 0.1 µM): 76%
- residual activity ([10]; compound 1.0 µM): 36%
- residual activity ([10]; compound 10.0 µM): 13%
- residual activity ([11]; compound 0.1 µM): 98%
- residual activity ([11]; compound 1.0 µM): 93%
- residual activity ([11]; compound 10.0 µM): 106%
- residual activity ([12]; compound 0.1 µM): 82%
- residual activity ([12]; compound 1.0 µM): 55%
- residual activity ([12]; compound 10.0 µM): 25%
- residual activity ([13]; compound 0.1 µM): 99%
- residual activity ([13]; compound 1.0 µM): 92%
- residual activity ([13]; compound 10.0 µM): 63%
- residual activity ([14]; compound 0.1 µM): 115%
- residual activity ([14]; compound 1.0 µM): 91%
- residual activity ([14]; compound 10.0 µM): 87%
- residual activity ([15]; compound 0.1 µM): 106%
- residual activity ([15]; compound 1.0 µM): 97%
- residual activity ([15]; compound 10.0 µM): 71%
- residual activity ([16]; compound 0.1 µM): 85%
- residual activity ([16]; compound 1.0 µM): 95%
- residual activity ([16]; compound 10.0 µM): 71%
- residual activity ([17]; compound 0.1 µM): 16%
- residual activity ([17]; compound 1.0 µM): 5%
- residual activity ([17]; compound 10.0 µM): 4%
- residual activity ([18]; compound 0.1 µM): 95%
- residual activity ([18]; compound 1.0 µM): 94%
- residual activity ([18]; compound 10.0 µM): 82%
- residual activity ([19]; compound 0.1 µM): 112%
- residual activity ([19]; compound 1.0 µM): 82%
- residual activity ([19]; compound 10.0 µM): 43%
- residual activity ([20]; compound 0.1 µM): 103%
- residual activity ([20]; compound 1.0 µM): 105%
- residual activity ([20]; compound 10.0 µM): 83%
- residual activity ([21]; compound 0.1 µM): 107%
- residual activity ([21]; compound 1.0 µM): 71%
- residual activity ([21]; compound 10.0 µM): 22%
- residual activity ([22]; compound 0.1 µM): 105%
- residual activity ([22]; compound 1.0 µM): 105%
- residual activity ([22]; compound 10.0 µM): 94%
- residual activity ([23]; compound 0.1 µM): 31%
- residual activity ([23]; compound 1.0 µM): 12%
- residual activity ([23]; compound 10.0 µM): 7%
- residual activity ([24]; compound 0.1 µM): 91%
- residual activity ([24]; compound 1.0 µM): 94%
- residual activity ([24]; compound 10.0 µM): 71%
- residual activity ([25]; compound 0.1 µM): 31%
- residual activity ([25]; compound 1.0 µM): 23%
- residual activity ([25]; compound 10.0 µM): 17%
- residual activity ([26]; compound 0.1 µM): 71%
- residual activity ([26]; compound 1.0 µM): 40%
- residual activity ([26]; compound 10.0 µM): 26%
- residual activity ([27]; compound 0.1 µM): 101%
- residual activity ([27]; compound 1.0 µM): 95%
- residual activity ([27]; compound 10.0 µM): 94%
- residual activity ([28]; compound 0.1 µM): 33%
- residual activity ([28]; compound 1.0 µM): 15%
- residual activity ([28]; compound 10.0 µM): 9%
- residual activity ([29]; compound 0.1 µM): 100%
- residual activity ([29]; compound 1.0 µM): 108%
- residual activity ([29]; compound 10.0 µM): 104%
- residual activity ([30]; compound 0.1 µM): 119%
- residual activity ([30]; compound 1.0 µM): 114%
- residual activity ([30]; compound 10.0 µM): 103%
- residual activity ([31]; compound 0.1 µM): 119%
- residual activity ([31]; compound 1.0 µM): 112%
- residual activity ([31]; compound 10.0 µM): 109%
- residual activity ([32]; compound 0.1 µM): 111%
- residual activity ([32]; compound 1.0 µM): 84%
- residual activity ([32]; compound 10.0 µM): 35%
- residual activity ([33]; compound 0.1 µM): 83%
- residual activity ([33]; compound 1.0 µM): 84%
- residual activity ([33]; compound 10.0 µM): 65%
- residual activity ([34]; compound 0.1 µM): 99%
- residual activity ([34]; compound 1.0 µM): 86%
- residual activity ([34]; compound 10.0 µM): 87%
- residual activity ([35]; compound 0.1 µM): 84%
- residual activity ([35]; compound 1.0 µM): 70%
- residual activity ([35]; compound 10.0 µM): 30%
Compound: CCn1c(-c2nonc2N)nc2cncc(CNC3CCNCC3)c21
